“Also recorded” adds a separate entry of the source.

Data set [1] concerns K562 cells. The data set can be described thus: Cytotoxic activity rate (% Lysis) of freeze-thawed highly active NK cells against K562 cells. Type of data set: cell-based. The note with it: for Activity: Exmp. 7, collect. method 2. As to the method: Cytotoxic activity can be expressed as the percentage of target cells killed by effector cells, and is calculated in accordance with the following equation.
(Cell death observed in co-culture with effector cells−Spontaneous cell death (negative control))/(Maximum cell death (positive control)−Spontaneous cell death (negative control))×100
For the measurement of cytotoxic activity, a group of the K562 cells reacted with the NK cells, a group consisting solely of the K562 cells as a negative control, and a group of the K562 cells fixed with 10% formalin as a positive control were prepared.
After incubation for the times indicated for the groups, the cells were collected, and prepared at a density of 2×10^6 cells/mL in 10% FBS/RPMI 1640.
The K562 cells (human chronic myelogenous leukemia cell line) were suspended in serum-free RPMI 1640 medium, stained with PKH26 Red Fluorescent Cell Linker Kit (Sigma, PKH26GL-1KT), and finally prepared at a density of 2×10^6 cells/mL in 10% FBS/RPMI 1640.
The NK cells and K562 cells were added and mixed in wells of 96-well plate (IWAKI, 4870-800SP) at a cell ratio of 1:1, and allowed to react at 37° C. for 2 hours under 5% CO2. After the reaction, the plate was centrifuged (500×g, 5 minutes), and the supernatant was removed. Then, a 7-AAD solution diluted with PBS was added to the cells to suspend the cells, and the suspension was incubated at room temperature for 20 minutes. […]
For the measurement of cytotoxic activity, a group of the NK cells reacted with the K562 cells, a group solely consisting of the K562 cells as a negative control, and a group of the K562 cells fixed with 10% formalin as a positive control were prepared.
The cells were thawed and diluted by the method described above, and a necessary amount of the cells were taken on the basis of the number of viable cells at the time of freezing, and then prepared at a density of 2×10^6 cells/mL in 10% FBS/RPMI 1640.
The K562 cells were suspended in serum-free RPMI 1640 medium, stained with PKH26 Red Fluorescent Cell Linker Kit, and then prepared at a density of 2×10^6 cells/mL in 10% FBS/RPMI 1640. […]
For the measurement of cytotoxic activity, a group of NK cells reacted with K562 cells, a group of K562 cells only as a negative control, and a group of K562 cells fixed with 10% formalin as a positive control were prepared. […]
(9-2) Cytotoxic activity was measured in the same manner as described in the section of (9-1), but after thawing and dilution, the cells were left to stand for up to 6 hours, and cytotoxic activity was measured by the method described in the section b) mentioned above at the time points of 2, 5, and 6 hours. In detail, the NK cells and K562 cells were added to each well of a 96-well plate (IWAKI, 4870-800SP) at a cell ratio of 1:1, mixed, and then allowed to react at 37° C. for 2 hours under 5% CO2.

Data set [2] concerns SKOV3 sphere. Description: Evaluation of thawed highly active NK cells in a solid tumor model (3D killing assay). Type of data set: cell-based, human. As to conditions: added before freezing at 800 μM (preferable between 2,400 μM and 267 μM). On the procedure: To one of SKOV3 sphere inoculated beforehand in each well of a […] plate, 50 μL of the prepared NK cells were added, and allowed to react for 4 days at 37° C. under 5% CO2. Then, the cells were detached with Accutase, collected, and cultured in the RPMI medium on a 24-well plate for expansion. After 17 days of the expansion culture at 37° C. under 5% CO2, the cells were fixed with 4% PFA, stained with DAPI, and observed under a fluorescence microscope (BZ-9000, KEYENCE), and BZ-II Analysis Application was used to quantify the area of SKOV3 that was not injured by the NK cells.
The SKOV3 cells (human ovarian cancer cell line) were prepared at a density of 3×10^4 cells/mL in 10% FBS/RPMI 1640, and inoculated onto a 96-well plate in an amount of 3×10^3 cells/100 μL per well. Spheres were prepared by incubating the cells at 37° C. for 3 days under 5% CO2.

Consider `C[C@H](CCC(=O)NCCS(=O)(=O)O)[C@H]1CC[C@H]2[C@@H]3[C@@H](O)C[C@@H]4C[C@H](O)CC[C@]4(C)[C@H]3CC[C@]12C` [TUDCA, tauroursodeoxycholic acid dihydrate], for which the Activity result is “A (A means 70% or higher)” in data set [1] (pretreatment KBM + 266 μM TUDCA 2 h, thawing PlasmaLyte + IL-2, R.T. 1 h); “A (A means 70% or higher)” in data set [1] (pretreatment KBM + 266 μM TUDCA 2 h, thawing PlasmaLyte + IL-2, R.T. 1 h, then KBM 2 h); “A (A means 70% or higher)” in data set [1] (pretreatment KBM + 266 μM TUDCA 2 h, thawing PlasmaLyte + IL-2, R.T. 3 h); “A (A means 70% or higher)” in data set [1] (pretreatment KBM + 266 μM TUDCA 2 h, thawing PlasmaLyte R.T. 1 h); “A (A means 70% or higher)” in data set [1] (pretreatment KBM + 266 μM TUDCA 2 h, thawing PlasmaLyte R.T. 1 h, then KBM 2 h); “A (A means 70% or higher)” in data set [1] (pretreatment KBM + 266 μM TUDCA 2 h, thawing PlasmaLyte R.T. 3 h). Further, the Activity result in data set [1] (pretreatment KBM + 800 μM TUDCA 2 h, thawing PlasmaLyte + IL-2, R.T. 1 h) was “A (A means 70% or higher)”; in data set [1] (pretreatment KBM + 800 μM TUDCA 2 h, thawing PlasmaLyte + IL-2, R.T. 1 h, then KBM 2 h), “A (A means 70% or higher)”; in data set [1] (pretreatment KBM + 800 μM TUDCA 2 h, thawing PlasmaLyte + IL-2, R.T. 3 h), “A (A means 70% or higher)”; in data set [1] (pretreatment KBM + 800 μM TUDCA 2 h, thawing PlasmaLyte R.T. 1 h) it was “A (A means 70% or higher)”; in data set [1] (pretreatment KBM + 800 μM TUDCA 2 h, thawing PlasmaLyte R.T. 1 h, then KBM 2 h) it was “A (A means 70% or higher)”; in data set [1] (pretreatment KBM + 800 μM TUDCA 2 h, thawing PlasmaLyte R.T. 3 h), “A (A means 70% or higher)”. Also, the Activity result in data set [1] (pretreatment KBM + 2400 μM TUDCA 2 h, thawing PlasmaLyte + IL-2, R.T. 1 h) is “A (A means 70% or higher)”; in data set [1] (pretreatment KBM + 2400 μM TUDCA 2 h, thawing PlasmaLyte + IL-2, R.T. 1 h, then KBM 2 h), “A (A means 70% or higher)”; in data set [1] (pretreatment KBM + 2400 μM TUDCA 2 h, thawing PlasmaLyte + IL-2, R.T. 3 h), “A (A means 70% or higher)”; in data set [1] (pretreatment KBM + 2400 μM TUDCA 2 h, thawing PlasmaLyte R.T. 1 h), “A (A means 70% or higher)”; in data set [1] (pretreatment KBM + 2400 μM TUDCA 2 h, thawing PlasmaLyte R.T. 1 h, then KBM 2 h), “A (A means 70% or higher)”; in data set [1] (pretreatment KBM + 2400 μM TUDCA 2 h, thawing PlasmaLyte R.T. 3 h), “A (A means 70% or higher)”. The “Cytotoxic activity of frozen and thawed highly active NK cells” value in data set [1] (pretreatment 2 hours, 10 to 810 μM, Plasma-Lyte A after thawing, 1 and 3 hours, K562, E:T 2:1, 2 hours, Example 6, dihydrate) is reported as “Improvement of the cytotoxic activity; also recorded: improved in a TUDCA concentration-dependent manner”. Besides, the “Killing activity against the solid tumor model” value in data set [2] was “higher killing activity”.

(Values after patent publication US20230109717A1 (GAIA BioMedicine Inc., priority 2020, published 2023).)
